# According to the NIST ThermoML archive (doi:10.1021/je900428g):
# “And” between values parts separate entries of the source, which are not always exact repeats. Identical values can stand only once. Numbers after ± are expanded uncertainties.
# Settings: Fluid (supercritical or subcritical phases), Spherical resonator
smiles,measurement,setting,value
[Ar] [argon],speed of sound,"250 K, 53.7 kPa",294.48 ± 0.5 m/s
same,speed of sound,"250 K, 198 kPa",294.47 ± 0.5 m/s
same,speed of sound,"250 K, 329.4 kPa",294.47 ± 0.5 m/s
same,speed of sound,"250 K, 2365.8 kPa",294.8 ± 0.5 m/s
same,speed of sound,"250 K, 4652.9 kPa",296.36 ± 0.5 m/s
same,speed of sound,"250 K, 5823 kPa",297.76 ± 0.51 m/s
same,speed of sound,"250.16 K, 48.7 kPa",294.57 ± 0.5 m/s
same,speed of sound,"250.16 K, 48.8 kPa",294.58 ± 0.5 m/s
same,speed of sound,"250.16 K, 192 kPa",294.57 ± 0.5 m/s
same,speed of sound,"250.16 K, 309.1 kPa",294.57 ± 0.5 m/s
same,speed of sound,"250.16 K, 447.7 kPa",294.56 ± 0.5 m/s and 294.57 ± 0.5 m/s
same,speed of sound,"250.16 K, 598.6 kPa",294.56 ± 0.5 m/s and 294.57 ± 0.5 m/s
same,speed of sound,"250.16 K, 732.5 kPa",294.56 ± 0.5 m/s and 294.58 ± 0.5 m/s
same,speed of sound,"250.16 K, 875.6 kPa",294.58 ± 0.5 m/s
same,speed of sound,"250.16 K, 1401.1 kPa",294.62 ± 0.5 m/s and 294.65 ± 0.5 m/s
same,speed of sound,"260 K, 198.6 kPa",300.35 ± 0.51 m/s
same,speed of sound,"260 K, 327.3 kPa",300.37 ± 0.51 m/s
same,speed of sound,"260 K, 3507.5 kPa",301.95 ± 0.51 m/s
same,speed of sound,"260 K, 4624 kPa",303.04 ± 0.51 m/s
same,speed of sound,"260 K, 6602.3 kPa",305.84 ± 0.52 m/s
same,speed of sound,"270 K, 53.2 kPa",306.06 ± 0.52 m/s
same,speed of sound,"270 K, 200 kPa",306.11 ± 0.52 m/s
same,speed of sound,"270 K, 325.8 kPa",306.15 ± 0.52 m/s
same,speed of sound,"270 K, 467.2 kPa",306.2 ± 0.52 m/s
same,speed of sound,"270 K, 3521.8 kPa",308.29 ± 0.52 m/s
same,speed of sound,"270 K, 4675.9 kPa",309.59 ± 0.52 m/s
same,speed of sound,"270 K, 5775.2 kPa",311.12 ± 0.53 m/s
same,speed of sound,"275.1 K, 47.6 kPa",308.94 ± 0.52 m/s
same,speed of sound,"275.1 K, 206.8 kPa",309.01 ± 0.52 m/s
same,speed of sound,"275.1 K, 206.9 kPa",309.01 ± 0.52 m/s
same,speed of sound,"275.1 K, 384.3 kPa",309.09 ± 0.52 m/s and 309.1 ± 0.52 m/s
same,speed of sound,"275.1 K, 547.4 kPa",309.17 ± 0.52 m/s and 309.18 ± 0.52 m/s
same,speed of sound,"275.1 K, 591.7 kPa",309.2 ± 0.52 m/s
same,speed of sound,"275.1 K, 706.2 kPa",309.25 ± 0.52 m/s and 309.26 ± 0.52 m/s
same,speed of sound,"275.1 K, 733.8 kPa",309.27 ± 0.52 m/s and 309.28 ± 0.52 m/s
same,speed of sound,"275.1 K, 860.2 kPa",309.34 ± 0.52 m/s and 309.33 ± 0.52 m/s and 309.35 ± 0.52 m/s
same,speed of sound,"275.1 K, 860.3 kPa",309.35 ± 0.52 m/s
same,speed of sound,"275.1 K, 1389.2 kPa",309.65 ± 0.52 m/s
same,speed of sound,"275.1 K, 1389.3 kPa",309.67 ± 0.52 m/s
same,speed of sound,"280 K, 200.1 kPa",311.76 ± 0.53 m/s
same,speed of sound,"280 K, 328.3 kPa",311.83 ± 0.53 m/s
same,speed of sound,"280 K, 2342.8 kPa",313.26 ± 0.53 m/s
same,speed of sound,"280 K, 4647.9 kPa",315.83 ± 0.53 m/s
same,speed of sound,"280 K, 5767 kPa",317.48 ± 0.53 m/s
same,speed of sound,"280 K, 6610.3 kPa",318.94 ± 0.54 m/s
same,speed of sound,"280.12 K, 99.1 kPa",311.77 ± 0.53 m/s
same,speed of sound,"280.12 K, 305.2 kPa",311.87 ± 0.53 m/s
same,speed of sound,"280.12 K, 307.7 kPa",311.89 ± 0.53 m/s
same,speed of sound,"280.12 K, 529.4 kPa",312 ± 0.53 m/s
same,speed of sound,"280.12 K, 531.1 kPa",312.01 ± 0.53 m/s
same,speed of sound,"280.12 K, 745.8 kPa",312.13 ± 0.53 m/s
same,speed of sound,"280.12 K, 748 kPa",312.14 ± 0.53 m/s
same,speed of sound,"280.12 K, 962.4 kPa",312.27 ± 0.53 m/s
same,speed of sound,"280.12 K, 964.6 kPa",312.28 ± 0.53 m/s
same,speed of sound,"280.12 K, 1184.9 kPa",312.42 ± 0.53 m/s
same,speed of sound,"280.12 K, 1396.4 kPa",312.58 ± 0.53 m/s
same,speed of sound,"280.12 K, 1396.8 kPa",312.57 ± 0.53 m/s
same,speed of sound,"280.12 K, 1601.7 kPa",312.72 ± 0.53 m/s
same,speed of sound,"280.12 K, 1834.4 kPa",312.91 ± 0.53 m/s
same,speed of sound,"290 K, 53.6 kPa",317.2 ± 0.53 m/s
same,speed of sound,"290 K, 196.4 kPa",317.3 ± 0.53 m/s
same,speed of sound,"290 K, 1191.6 kPa",318.04 ± 0.53 m/s
same,speed of sound,"290 K, 2325 kPa",319.08 ± 0.54 m/s
same,speed of sound,"290 K, 3477.8 kPa",320.36 ± 0.54 m/s
same,speed of sound,"300 K, 30.5 kPa",322.62 ± 0.54 m/s
same,speed of sound,"300 K, 183.8 kPa",322.74 ± 0.54 m/s
same,speed of sound,"300 K, 308.3 kPa",322.84 ± 0.54 m/s
same,speed of sound,"300 K, 1180.9 kPa",323.61 ± 0.54 m/s
same,speed of sound,"300 K, 2331.5 kPa",324.81 ± 0.55 m/s
same,speed of sound,"300 K, 4657.3 kPa",327.88 ± 0.55 m/s
same,speed of sound,"300 K, 5832.9 kPa",329.8 ± 0.55 m/s
same,speed of sound,"300 K, 6595.8 kPa",331.21 ± 0.56 m/s
same,speed of sound,"300.11 K, 100.3 kPa",322.73 ± 0.54 m/s
same,speed of sound,"300.11 K, 244.7 kPa",322.85 ± 0.54 m/s
same,speed of sound,"300.11 K, 395.4 kPa",322.98 ± 0.54 m/s
same,speed of sound,"300.11 K, 528 kPa",323.11 ± 0.54 m/s
same,speed of sound,"300.11 K, 558.1 kPa",323.12 ± 0.54 m/s
same,speed of sound,"300.11 K, 701.6 kPa",323.24 ± 0.54 m/s
same,speed of sound,"300.11 K, 739.1 kPa",323.3 ± 0.54 m/s
same,speed of sound,"300.11 K, 868 kPa",323.39 ± 0.54 m/s
same,speed of sound,"300.11 K, 963 kPa",323.5 ± 0.54 m/s
same,speed of sound,"300.11 K, 1011.7 kPa",323.53 ± 0.54 m/s
same,speed of sound,"300.11 K, 1166.1 kPa",323.69 ± 0.54 m/s
same,speed of sound,"300.11 K, 1618 kPa",324.14 ± 0.54 m/s
same,speed of sound,"300.11 K, 1836.4 kPa",324.37 ± 0.54 m/s
same,speed of sound,"300.12 K, 48.1 kPa",322.69 ± 0.54 m/s
same,speed of sound,"300.12 K, 193 kPa",322.81 ± 0.54 m/s
same,speed of sound,"300.12 K, 308.1 kPa",322.91 ± 0.54 m/s
same,speed of sound,"300.12 K, 445.5 kPa",323.02 ± 0.54 m/s and 323.03 ± 0.54 m/s
same,speed of sound,"300.12 K, 729.9 kPa",323.27 ± 0.54 m/s and 323.28 ± 0.54 m/s
same,speed of sound,"300.12 K, 868.1 kPa",323.39 ± 0.54 m/s
same,speed of sound,"300.12 K, 868.2 kPa",323.4 ± 0.54 m/s and 323.41 ± 0.54 m/s
same,speed of sound,"300.12 K, 1378.6 kPa",323.87 ± 0.54 m/s and 323.89 ± 0.54 m/s
same,speed of sound,"310 K, 104.7 kPa",328.02 ± 0.55 m/s
same,speed of sound,"310 K, 198.6 kPa",328.11 ± 0.55 m/s
same,speed of sound,"310 K, 329.2 kPa",328.23 ± 0.55 m/s
same,speed of sound,"310 K, 463.4 kPa",328.35 ± 0.55 m/s
same,speed of sound,"310 K, 2330.1 kPa",330.38 ± 0.55 m/s
same,speed of sound,"310 K, 4624.6 kPa",333.59 ± 0.56 m/s
same,speed of sound,"310 K, 6595.8 kPa",337.02 ± 0.56 m/s
same,speed of sound,"320 K, 102 kPa",333.28 ± 0.56 m/s
same,speed of sound,"320 K, 180.5 kPa",333.35 ± 0.56 m/s
same,speed of sound,"320 K, 311 kPa",333.48 ± 0.56 m/s
same,speed of sound,"320 K, 450.5 kPa",333.63 ± 0.56 m/s
same,speed of sound,"320 K, 576.4 kPa",333.77 ± 0.56 m/s and 333.79 ± 0.56 m/s
same,speed of sound,"320 K, 1053.9 kPa",334.3 ± 0.56 m/s and 334.32 ± 0.56 m/s
same,speed of sound,"320 K, 1550.8 kPa",334.89 ± 0.56 m/s and 334.9 ± 0.56 m/s
same,speed of sound,"320 K, 2333.1 kPa",335.85 ± 0.56 m/s
same,speed of sound,"320 K, 4482.2 kPa",339 ± 0.57 m/s
same,speed of sound,"320 K, 5819.9 kPa",341.24 ± 0.57 m/s
same,speed of sound,"325.05 K, 48.1 kPa",335.83 ± 0.56 m/s
same,speed of sound,"325.05 K, 192.9 kPa",336 ± 0.56 m/s and 335.99 ± 0.56 m/s
same,speed of sound,"325.05 K, 314.5 kPa",336.13 ± 0.56 m/s
same,speed of sound,"325.05 K, 438.6 kPa",336.27 ± 0.56 m/s
same,speed of sound,"325.05 K, 592.7 kPa",336.44 ± 0.56 m/s
same,speed of sound,"325.05 K, 736 kPa",336.6 ± 0.56 m/s
same,speed of sound,"325.05 K, 870.8 kPa",336.76 ± 0.56 m/s
same,speed of sound,"325.05 K, 1376.5 kPa",337.36 ± 0.56 m/s
same,speed of sound,"325.05 K, 1376.6 kPa",337.37 ± 0.56 m/s
same,speed of sound,"325.05 K, 2721.4 kPa",339.14 ± 0.57 m/s
same,speed of sound,"349.87 K, 48.9 kPa",348.43 ± 0.58 m/s and 348.44 ± 0.58 m/s
same,speed of sound,"349.87 K, 182.8 kPa",348.62 ± 0.58 m/s
same,speed of sound,"349.87 K, 182.9 kPa",348.61 ± 0.58 m/s
same,speed of sound,"349.87 K, 307.3 kPa",348.77 ± 0.58 m/s and 348.78 ± 0.58 m/s
same,speed of sound,"349.87 K, 447 kPa",348.95 ± 0.58 m/s and 348.97 ± 0.58 m/s
same,speed of sound,"349.87 K, 594.5 kPa",349.14 ± 0.58 m/s
same,speed of sound,"349.87 K, 726.7 kPa",349.32 ± 0.58 m/s and 349.34 ± 0.58 m/s
same,speed of sound,"349.87 K, 864.5 kPa",349.5 ± 0.58 m/s
same,speed of sound,"349.87 K, 864.6 kPa",349.52 ± 0.58 m/s
same,speed of sound,"349.87 K, 1397.7 kPa",350.24 ± 0.58 m/s and 350.26 ± 0.58 m/s
same,speed of sound,"349.87 K, 2711.2 kPa",352.19 ± 0.59 m/s
